Measurements taken from PubChem BioAssay AID2060599 (Molecular Pharmacology Branch, DTP, NCI, 2025).
Each block holds one compound with its values, some of them ahead of it.

Test system: 817829-284-R-J1-PDC complex spheroids, viability
Assay: Anticancer human tumor 817829-284-R-J1-PDC patient-derived colon adenocarcinoma cell line growth inhibition [CLK]
Details: for IC50: curve of first compound; for viability, T/C: stronger effect = lower value
Summary of the method: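 Multi-cell-type spheroids combined patient-derived tumor cells with HUVEC endothelial cells and human mesenchymal stem cells. Paired agents were dosed in half-log steps down from about clinical Cmax, or from 10 microM where Cmax was unknown.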

[1] = second compound 0.0316 µM, first compound 0.0316 µM
[2] = second compound 0.0316 µM, first compound 0.1 µM
[3] = second compound 0.0316 µM, first compound 0.316 µM
[4] = second compound 0.0316 µM, first compound 1 µM
[5] = second compound 0.0316 µM, first compound 3.16 µM
[6] = second compound 0.0316 µM, first compound 10 µM
[7] = second compound 0.1 µM, first compound 0.0316 µM
[8] = second compound 0.1 µM, first compound 0.1 µM
[9] = second compound 0.1 µM, first compound 0.316 µM
[10] = second compound 0.1 µM, first compound 1 µM
[11] = second compound 0.1 µM, first compound 3.16 µM
[12] = second compound 0.1 µM, first compound 10 µM
[13] = second compound 0.316 µM, first compound 0.0316 µM
[14] = second compound 0.316 µM, first compound 0.1 µM
[15] = second compound 0.316 µM, first compound 0.316 µM
[16] = second compound 0.316 µM, first compound 1 µM
[17] = second compound 0.316 µM, first compound 3.16 µM
[18] = second compound 0.316 µM, first compound 10 µM
[19] = second compound 1 µM, first compound 0.0316 µM
[20] = second compound 1 µM, first compound 0.1 µM
[21] = second compound 1 µM, first compound 0.316 µM
[22] = second compound 1 µM, first compound 1 µM
[23] = second compound 1 µM, first compound 3.16 µM
[24] = second compound 1 µM, first compound 10 µM
[25] = second compound 3.16 µM, first compound 0.0316 µM
[26] = second compound 3.16 µM, first compound 0.1 µM
[27] = second compound 3.16 µM, first compound 0.316 µM
[28] = second compound 3.16 µM, first compound 1 µM
[29] = second compound 3.16 µM, first compound 3.16 µM
[30] = second compound 3.16 µM, first compound 10 µM
[31] = second compound 10 µM, first compound 0.0316 µM
[32] = second compound 10 µM, first compound 0.1 µM
[33] = second compound 10 µM, first compound 0.316 µM
[34] = second compound 10 µM, first compound 1 µM
[35] = second compound 10 µM, first compound 3.16 µM
[36] = second compound 10 µM, first compound 10 µM
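Further: spheroids exposed to the agents for seven days before readout.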

- IC50 (second compound 0.0316 µM): < 31.6 nM
- IC50 (second compound 0.1 µM): < 31.6 nM
- IC50 (second compound 0.316 µM): < 31.6 nM
- IC50 (second compound 1 µM): < 31.6 nM
- IC50 (second compound 3.16 µM): < 31.6 nM
- IC50 (second compound 10 µM): 34.4 nM
SMILES: C#Cc1c(F)ccc2cc(O)cc(-c3ncc4c(N5CC6CCC(C5)N6)nc(OCC56CCCN5CC(F)C6)nc4c3F)c12 (centres undefined) + CNC(=O)c1ccc(Nc2nc(OC3CCCC3)c3c(-c4ccc5nc(C)oc5c4)c[nH]c3n2)c(OC)c1
- viability, T/C [1]: 34.1%
- viability, T/C [2]: 43.8%
- viability, T/C [3]: 24.7%
- viability, T/C [4]: 22.7%
- viability, T/C [5]: 19.7%
- viability, T/C [6]: 17.7%
- viability, T/C [7]: 27%
- viability, T/C [8]: 26.2%
- viability, T/C [9]: 22.1%
- viability, T/C [10]: 29.4%
- viability, T/C [11]: 26%
- viability, T/C [12]: 30.8%
- viability, T/C [13]: 33.1%
- viability, T/C [14]: 20.1%
- viability, T/C [15]: 23.5%
- viability, T/C [16]: 33.7%
- viability, T/C [17]: 25.6%
- viability, T/C [18]: 15.5%
- viability, T/C [19]: 23.1%
- viability, T/C [20]: 18.2%
- viability, T/C [21]: 19%
- viability, T/C [22]: 38%
- viability, T/C [23]: 24.4%
- viability, T/C [24]: 10%
- viability, T/C [25]: 24.8%
- viability, T/C [26]: 20.4%
- viability, T/C [27]: 23%
- viability, T/C [28]: 20.9%
- viability, T/C [29]: 20.8%
- viability, T/C [30]: 10.5%
- viability, T/C [31]: 52.5%
- viability, T/C [32]: 20.1%
- viability, T/C [33]: 22.6%
- viability, T/C [34]: 18.4%
- viability, T/C [35]: 17.7%
- viability, T/C [36]: 9.34%

SMILES: C#Cc1c(F)ccc2cc(O)cc(-c3ncc4c(N5CC6CCC(C5)N6)nc(OCC56CCCN5CC(F)C6)nc4c3F)c12 (centres undefined) + CN1CCN(c2cc(C(=O)Nc3cc4cc(-c5cnn(C)c5)ccc4cn3)ccn2)CC1
- IC50 (second compound 0.0316 µM): 4960 nM
- IC50 (second compound 0.1 µM): < 31.6 nM
- IC50 (second compound 0.316 µM): < 31.6 nM
- IC50 (second compound 1 µM): < 31.6 nM
- IC50 (second compound 3.16 µM): < 31.6 nM
- IC50 (second compound 10 µM): < 31.6 nM
- viability, T/C [1]: 83.1%
- viability, T/C [2]: 61%
- viability, T/C [3]: 66.3%
- viability, T/C [4]: 68.5%
- viability, T/C [5]: 57.3%
- viability, T/C [6]: 40.5%
- viability, T/C [7]: 24.2%
- viability, T/C [8]: 19.4%
- viability, T/C [9]: 19.8%
- viability, T/C [10]: 17.4%
- viability, T/C [11]: 15.2%
- viability, T/C [12]: 11.8%
- viability, T/C [13]: 2.71%
- viability, T/C [14]: 2.39%
- viability, T/C [15]: 2.14%
- viability, T/C [16]: 2.39%
- viability, T/C [17]: 2.31%
- viability, T/C [18]: 1.5%
- viability, T/C [19]: 0.1%
- viability, T/C [20]: 0.14%
- viability, T/C [21]: 0.17%
- viability, T/C [22]: 0.12%
- viability, T/C [23]: 0.09%
- viability, T/C [24]: 0.09%
- viability, T/C [25]: 0.15%
- viability, T/C [26]: 0.13%
- viability, T/C [27]: 0.15%
- viability, T/C [28]: 0.16%
- viability, T/C [29]: 0.13%
- viability, T/C [30]: 0.07%
- viability, T/C [31]: 0.1%
- viability, T/C [32]: 0.11%
- viability, T/C [33]: 0.11%
- viability, T/C [34]: 0.16%
- viability, T/C [35]: 0.17%
- viability, T/C [36]: 0.13%
